According to ChEMBL document CHEMBL1201862, “PubChem BioAssay data set” (2004):
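Interpolation was linear, between the two tested concentrations surrounding the appropriate level; five concentrations were tested over 48 hours in 96-well plates. GI50 marks 50% less growth.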 The source made the active and inactive calls. No stated cut-off is given here; in the data, active = GI50 up to about 1.1 µM and inactive = higher.

Key:
Assay in all cases: NCI-60 cell line screen, 48 h
[1] = system: MCF7
[2] = system: SF-268
[3] = system: CAKI-1
[4] = system: SK-MEL-28
[5] = system: TK-10
[6] = system: A498
[7] = system: SK-MEL-5
[8] = system: SW-620
[9] = system: HT-29
[10] = system: MDA-N
[11] = system: U-251
[12] = system: SNB-19
[13] = system: OVCAR-5
[14] = system: SF-539
[15] = system: HCT-15
[16] = system: MDA-MB-435
[17] = system: SR
[18] = system: PC-3
[19] = system: HOP-62
[20] = system: T47D

Measured: GI50

N#CC(CC(=O)O)=C(c1ccccc1)c1ccccc1
> 100 µM: [15]
inactive: [1] > 100 µM | [2] > 100 µM | [3] > 100 µM | [4] > 100 µM | [5] > 100 µM | [6] > 100 µM | [7] > 100 µM | [8] > 100 µM | [9] > 100 µM | [10] > 100 µM | [11] > 100 µM | [12] > 100 µM | [13] > 100 µM | [14] > 100 µM | [16] > 100 µM | [17] > 100 µM | [18] > 100 µM | [19] > 100 µM

CC(C)CC(NC(=O)C(COc1ccc([N+](=O)[O-])cc1)Cc1ccccc1)C(=O)Nc1ccccc1 (centres undefined)
13.3 µM: [15]
inactive: [1] 25.8 µM | [3] 28.2 µM | [5] 11.5 µM | [6] 24 µM | [7] 7.83 µM | [8] 24.3 µM | [10] 10.3 µM | [11] 12.6 µM | [12] 7.76 µM | [13] 40.3 µM | [14] 6.68 µM | [16] 14.1 µM | [17] 41.5 µM | [18] 38.7 µM

O=C(O)CCC(NC(=O)c1ccc(CNc2nc3ccccc3nc2C(=O)O)cc1)C(=O)O (centres undefined)
inactive: [1] > 100 µM | [2] > 100 µM | [4] > 100 µM | [5] > 100 µM | [6] > 100 µM | [7] > 100 µM | [8] > 100 µM | [9] > 100 µM | [10] > 100 µM | [11] > 100 µM | [12] > 100 µM | [13] > 100 µM | [16] > 100 µM | [17] > 100 µM | [18] > 100 µM | [19] > 100 µM
> 100 µM: [15]

Cc1cc(C)nc(NC(=S)Nc2ccc([N+](=O)[O-])cc2)c1
> 100 µM: [15]
inactive: [1] > 100 µM | [2] > 100 µM | [3] > 100 µM | [4] > 100 µM | [5] > 100 µM | [6] > 100 µM | [7] > 100 µM | [8] > 100 µM | [9] > 100 µM | [11] > 100 µM | [12] > 100 µM | [14] > 100 µM | [16] > 100 µM | [17] > 100 µM | [18] > 100 µM | [19] > 100 µM | [20] > 100 µM

CCCCN(CCCC)CC(O)c1cc(-c2ccc(C(F)(F)F)cc2)nc(-c2ccc(C(F)(F)F)cc2)c1 (centres undefined)
26.4 µM: [15]
inactive: [1] > 10 µM | [2] > 100 µM | [3] > 100 µM | [4] > 100 µM | [5] > 100 µM | [6] > 100 µM | [8] > 100 µM | [9] > 100 µM | [11] > 100 µM | [12] > 100 µM | [13] > 100 µM | [14] > 100 µM | [16] 59.6 µM | [17] > 100 µM | [18] 55 µM | [19] 70.8 µM | [20] 34.4 µM

CCN(CC)CCn1c(C(C)(C)C)nc2ccccc21
inactive: [1] > 100 µM | [2] > 100 µM | [3] > 100 µM | [4] > 100 µM | [5] > 100 µM | [7] > 10 µM | [8] > 100 µM | [9] > 100 µM | [10] > 100 µM | [11] 30.7 µM | [12] > 100 µM | [13] > 100 µM | [14] > 100 µM | [17] > 100 µM | [18] > 100 µM | [19] > 100 µM
> 100 µM: [15]

CCOC(=O)c1c(-c2ccc(OC)c(O)c2)c(C#N)c(=S)n(C2OC(CO)C(O)C(O)C2O)c1-c1ccccc1 (centres undefined)
inactive: [2] > 100 µM | [3] > 100 µM | [4] > 100 µM | [6] > 100 µM | [7] > 100 µM | [8] > 100 µM | [9] > 100 µM | [10] > 100 µM | [11] > 100 µM | [12] > 100 µM | [16] > 100 µM | [17] > 100 µM | [18] > 100 µM | [19] > 100 µM
> 100 µM: [15]

CC(C)c1cc(C(C)C)c(Cl)c(Cl)c1O.CC(C)c1cc(Cl)c(O)c(C(C)C)c1Cl
36.7 µM: [15]
inactive: [1] 23.7 µM | [2] 18.8 µM | [3] 20.5 µM | [4] 24.1 µM | [5] 26.5 µM | [8] 25.8 µM | [9] 24 µM | [11] 34.7 µM | [12] 23 µM | [13] 48.3 µM | [14] 20 µM | [16] 21.4 µM | [17] 9.25 µM | [18] 19.5 µM | [19] 32.7 µM
active: [7] 0.063 µM

C/C(=N\NS(=O)(=O)c1ccc(C)cc1)C(CN(C)C)C(c1ccccc1)c1c(O)c2ccccc2oc1=O (centres undefined)
inactive: [1] > 100 µM | [2] > 100 µM | [3] > 100 µM | [4] > 100 µM | [5] > 100 µM | [6] > 100 µM | [7] > 100 µM | [8] > 69.3 µM | [9] > 100 µM | [10] > 100 µM | [11] > 100 µM | [12] > 100 µM | [13] > 100 µM | [14] > 100 µM | [16] > 100 µM | [17] > 60 µM | [18] > 100 µM | [19] 89.9 µM
> 100 µM: [15]

COc1ccc2nc3c(c(N)c2c1)C1CCC3C1(C)C (centres undefined)
51.1 µM: [15]
inactive: [1] 24 µM | [2] 72.1 µM | [3] 39.3 µM | [4] 30.8 µM | [5] 32.7 µM | [6] 25.1 µM | [7] 12.5 µM | [8] 25.5 µM | [9] 23.8 µM | [11] 38.5 µM | [12] > 100 µM | [13] 41 µM | [14] 38.2 µM | [16] 33 µM | [17] 34.8 µM | [18] 24.3 µM | [19] 16 µM | [20] 22.7 µM

CN1CCCNCCN(CCc2ccccn2)CCCN(C)CC1
inactive: [2] > 100 µM | [3] > 100 µM | [4] > 100 µM | [5] > 100 µM | [6] > 100 µM | [7] > 100 µM | [8] > 33.8 µM | [9] > 100 µM | [11] > 94.6 µM | [12] > 100 µM | [13] > 100 µM | [14] > 100 µM | [17] 29.1 µM | [19] > 100 µM
> 43.5 µM: [15]

CCN(CCCl)CCNc1c2ccccc2nc2ccc(OC)cc12
0.731 µM: [15]
active: [1] 0.378 µM | [2] 0.454 µM | [3] 0.361 µM | [7] 1.12 µM | [8] 0.132 µM | [9] 0.267 µM | [11] 0.906 µM | [14] 0.502 µM | [19] 1.12 µM
inactive: [4] 1.52 µM | [5] 1.58 µM | [6] 1.78 µM | [12] 1.41 µM | [13] 1.36 µM
